For 45 compounds, pIC50 and MIC results are on record in US7498343B2, “Mycobacterial inhibitors” (priority 2002, dated 2009).

One experiment relates to M. Smegmatis ATCC607. Description: In-vitro method for testing compounds for anti-bacterial activity against strain M. smegmatis ATCC607 (Alamar Blue growth inhibition). In kind it is cell-based. As to conditions: M. smegmatis ATCC607; pIC50 = -logIC50, IC50 in M, 50% inhibitory concentration for bacterial growth; 48 hours incubation. The procedure: C.2. In-vitro Method for Testing Compounds for Anti-bacterial Activity Against Strain M. Smegmatis ATCC607. […] Subsequently, stock solutions (7.8×final test concentration) of compounds were added in 45 μl volumes to a series of duplicate wells in column 2 so as to allow evaluation of their effects on bacterial growth. Serial five-fold dilutions (45 μl in 180 μl) were made directly in the microtiter plates from column 2 to 11 using a customised robot system (Zymark Corp., Hopkinton, Mass.). Pipette tips were changed after every 3 dilutions to minimize pipetting errors with high hydrophobic compounds. Untreated control samples with (column 1) and without (column 12) inoculum were included in each microtiter plate. Approximately 250 CFU per well of bacteria inoculum, in a volume of 100 μl in 2.8×Mueller-Hinton broth medium, was added to the rows […]. The same volume of broth medium without inoculum was added to column 12 in row A to H. The cultures were incubated at 37° C. for 48 hours in a humidified 5% CO2 atmosphere (incubator with open air valve and continuous ventilation). At the end of incubation, two days after inoculation, the bacterial growth was quantitated fluorometrically. Therefore Alamar Blue (10×) was added to all wells in a volume of 20 μl and plates were incubated for another 2 hours at […] The fluorescence was read in a computer-controlled fluorometer (Cytofluor, Biosearch) at an excitation wavelength of 530 nm and an emission wavelength of 590 nm (gain 30). The % growth inhibition achieved by the compounds was calculated according to standard methods.

Experiment [1] relates to Mycobacterium tuberculosis (strain H37RV). Description: In-vitro method for testing compounds against M. tuberculosis (resazurin growth inhibition, MIC). In kind it is cell-based. As to conditions: MIC data representing IC90's, 7 days incubation, resazurin fluorescence.

The structures appear in SMILES notation.

As for `COc1nc2ccc(Br)cc2cc1C(c1ccccc1)C(O)(CCN(C)C)c1ccc2ccccc2c1` (racemic) [Compound 45], the negative logarithm of the IC50 (pIC50) in the experiment with M. Smegmatis ATCC607 is recorded as 8.0. The compound further yielded an MIC in experiment [1] of 1.76 microgram/ml.

Regarding `COc1nc2ccc(Br)cc2cc1C(c1ccccc1)C(O)(CCN(C)C)c1ccc2ccccc2c1` (racemic) [Compound 46], the pIC50 in the experiment with M. Smegmatis ATCC607 is given as 6.4. This compound yielded an MIC in experiment [1] of 1.76 microgram/ml. Compound `COc1nc2ccc(Br)cc2cc1C(c1ccccc1)C(O)(CCN1CCN(C)CC1)c1ccccc1` (racemic) [Compound 51] yielded a negative logarithm of the IC50 (pIC50) in the experiment with M. Smegmatis ATCC607 of 5.8. Compound `COc1nc2ccc(Br)cc2cc1C(c1ccccc1)C(O)(CCN1CCN(C)CC1)c1ccccc1` (racemic) [Compound 52] came in with a pIC50 with M. Smegmatis ATCC607 of 6.4. The MIC in experiment [1] is on record as 7.06 microgram/ml. Regarding `COc1nc2ccc(Br)cc2cc1C(c1ccccc1)C(O)(CCn1cncn1)c1ccccc1` (racemic) [Compound 53], the pIC50 in the experiment with M. Smegmatis ATCC607 stood at 5.1. In addition, the MIC in experiment [1] worked out at 52.94 microgram/ml. Compound `COc1nc2ccc(Br)cc2cc1C(c1ccccc1)C(O)(CCn1cncn1)c1ccccc1` (racemic) [Compound 54] yielded a negative-log IC50 (pIC50) in the experiment on M. Smegmatis ATCC607 of 4.1. Besides, the MIC in experiment [1] is reported as 52.94 microgram/ml. Turning to `COc1nc2ccc(Br)cc2cc1C(c1ccccc1)C(O)(CCN1CCSCC1)c1ccccc1` (racemic) [Compound 55], in the experiment with M. Smegmatis ATCC607, the negative-log IC50 (pIC50) was found to be 5.1. The compound further registered an MIC in experiment [1] of 44.77 microgram/ml. For `COc1nc2ccc(Br)cc2cc1C(c1ccccc1)C(O)(CC[N+](C)(C)C)c1ccccc1.[I-]` (racemic) [Compound 57], the pIC50 in the experiment on M. Smegmatis ATCC607 was found to be 5.4. In experiment [1], the MIC is recorded as 25.77 microgram/ml. For `COc1nc2ccc(Br)cc2cc1C(c1ccccc1)C(O)(CC[N+](C)(C)[O-])c1ccccc1` (racemic) [Compound 58], the negative-log IC50 (pIC50) in the experiment with M. Smegmatis ATCC607 is listed as 6.8. The MIC in experiment [1] worked out at 16.49 microgram/ml.

In turn, `COc1nc2ccc(Br)cc2cc1C(c1ccccc1)C(O)(CCN(C)C)c1ccccc1F` (racemic) [Compound 69] displayed a negative logarithm of the IC50 (pIC50) in the experiment on M. Smegmatis ATCC607 of 8.5. The same compound yielded an MIC in experiment [1] of 0.13 microgram/ml.

`COc1nc2ccc(Br)cc2cc1C(c1ccccc1)C(O)(CCN(C)C)c1ccccc1F` (racemic) [Compound 70]: the pIC50 with M. Smegmatis ATCC607 amounted to 5.8. This compound registered an MIC in experiment [1] of 52.35 microgram/ml. Taken in the same sequence, the figures for `COc1nc2ccc(Br)cc2cc1C(c1ccc(Cl)cc1)C(O)(CCN(C)C)c1cccc2ccccc12` (racemic) [Compound 73] were 8.0 and 23.49 microgram/ml. Compound `COc1nc2ccc(Br)cc2cc1C(c1ccc(Cl)cc1)C(O)(CCN(C)C)c1cccc2ccccc12` (racemic) [Compound 74] showed a negative-log IC50 (pIC50) with M. Smegmatis ATCC607 of 6.5. In experiment [1], this compound yielded an MIC of 59.00 microgram/ml. In the case of `COc1nc2ccc(Br)cc2cc1C(c1ccccc1)C(O)(CCN(C)C)c1ccc2c(c1)OCO2` (racemic) [Compound 75], the negative logarithm of the IC50 (pIC50) in the experiment with M. Smegmatis ATCC607 was 7.9. In experiment [1], the MIC is 1.74 microgram/ml.

Turning to `COc1nc2ccc(Br)cc2cc1C(c1ccccc1)C(O)(CCN(C)C)c1ccc2c(c1)OCO2` (racemic) [Compound 76], the pIC50 with M. Smegmatis ATCC607 is 5.9. In experiment [1], this compound displayed an MIC of 1.74 microgram/ml. Regarding `COc1nc2ccc(Br)cc2cc1C(c1ccccc1)C(O)(CCN(C)C)c1ccc2c(c1)OCCO2` (racemic) [Compound 77], the pIC50 with M. Smegmatis ATCC607 was 7.2. In experiment [1], this compound had an MIC of 8.93 microgram/ml.

Turning to `COc1nc2ccc(Br)cc2cc1C(c1ccccc1)C(O)(CCN(C)C)c1ccc2c(c1)OCCO2` (racemic) [Compound 78], in the experiment on M. Smegmatis ATCC607, the pIC50 worked out at 5.8. The same compound gave an MIC in experiment [1] of 44.76 microgram/ml. As for `CN(C)CCC(O)(c1cccc2ccccc12)C(c1ccccc1)c1cc2cc(Br)ccc2nc1N1CCOCC1` (racemic) [Compound 79], in the experiment on M. Smegmatis ATCC607, the negative-log IC50 (pIC50) was 7.2. The MIC in experiment [1] is 2.43 microgram/ml. Consider `COc1nc2ccc(Br)cc2cc1C(c1ccccc1)C(O)(CCN(C)C)c1ccc(C#N)cc1` (racemic) [Compound 80], for which the negative logarithm of the IC50 (pIC50) in the experiment on M. Smegmatis ATCC607 is reported as 7.1. The compound further returned an MIC in experiment [1] of 2.11 microgram/ml. For `COc1nc2ccc(Br)cc2cc1C(c1ccccc1)C(O)(CCN(C)C)c1ccc(C#N)cc1` (racemic) [Compound 81] the same measures were 5.4 and 42.14 microgram/ml.

In the experiment with M. Smegmatis ATCC607, `COc1nc2ccc(C)cc2cc1C(c1ccccc1)C(O)(CCN(C)C)c1cccc2ccccc12` (racemic) [Compound 82] returned a pIC50 of 7.1. In experiment [1], this compound yielded an MIC of 3.90 microgram/ml. Taken in the same sequence, the figures for `COc1nc2ccc(C)cc2cc1C(c1ccccc1)C(O)(CCN(C)C)c1cccc2ccccc12` (racemic) [Compound 83] were 5.8 and 7.78 microgram/ml. For `COc1nc2ccc(-c3ccccc3)cc2cc1C(c1ccccc1)C(O)(CCN(C)C)c1cccc2ccccc12` (racemic) [Compound 84] the same measures were 7.0 and 8.76 microgram/ml.

As for `COc1nc2ccc(-c3ccccc3)cc2cc1C(c1ccccc1)C(O)(CCN(C)C)c1cccc2ccccc12` (racemic) [Compound 85], in the experiment on M. Smegmatis ATCC607, the negative logarithm of the IC50 (pIC50) is listed as 5.9. Also, in experiment [1], the MIC was found to be 8.76 microgram/ml. In turn, `COc1nc2ccc(Br)cc2cc1C(c1ccccc1)C(O)(CCN(C)C)c1cccnc1` (racemic) [Compound 86] came in with a negative logarithm of the IC50 (pIC50) with M. Smegmatis ATCC607 of 6.9. Further, the MIC in experiment [1] turned out to be 16.02 microgram/ml. Taken in the same sequence, the figures for `COc1nc2ccc(Br)cc2cc1C(c1ccccc1)C(O)(CCN(C)C)c1cccnc1` (racemic) [Compound 87] were 5.0 and 40.23 microgram/ml. With `CSc1nc2ccc(Br)cc2cc1C(c1ccccc1)C(O)(CCN(C)C)c1cccc2ccccc12` (racemic) [Compound 88], the negative logarithm of the IC50 (pIC50) in the experiment on M. Smegmatis ATCC607 is recorded as 6.8. Further, the MIC in experiment [1] came to 45.40 microgram/ml. As for `COc1nc2ccc(Br)cc2cc1C(c1ccccc1)C(O)(CCN(C)C)c1ccc(N2CCOCC2)cc1` (racemic) [Compound 89], the pIC50 in the experiment with M. Smegmatis ATCC607 is recorded as 6.4. In experiment [1], this compound displayed an MIC of 59.06 microgram/ml. Taken in the same sequence, the figures for `COc1nc2ccc(Br)cc2cc1C(c1ccccc1)C(O)(CCN(C)C)c1ccc(N2CCOCC2)cc1` (racemic) [Compound 90] were 5.3 and 59.06 microgram/ml. `COc1nc2ccccc2cc1C(c1ccccc1)C(O)(CCN(C)C)c1cccc2ccccc12` (racemic) [Compound 91] yielded a pIC50 with M. Smegmatis ATCC607 of 7.5. In addition, the MIC in experiment [1] was found to be 1.51 microgram/ml. `CN(C)CCC(O)(c1ccccc1)C(c1ccccc1)c1cc2cc(Br)ccc2nc1O` (single isomer, unassigned) [Compound 59] displayed a pIC50 in the experiment on M. Smegmatis ATCC607 of 5.1.

In the experiment with M. Smegmatis ATCC607, `CN(C)CCC(O)(c1ccccc1)C(c1ccccc1)c1cc2cc(Br)ccc2nc1O` (single isomer, unassigned) [Compound 60] registered a pIC50 of 5.6. Regarding `CN(C)CCC(O)(c1ccccc1)C(c1ccccc1)c1cc2cc(Br)ccc2n2ccnc12` (single isomer, unassigned) [Compound 104], the pIC50 in the experiment on M. Smegmatis ATCC607 is reported as 6.6. The same measure, in the same setting: the result for `CN(C)CCC(O)(c1ccccc1)C(c1ccccc1)c1cc2cc(Br)ccc2n2ccnc12` (single isomer, unassigned) [Compound 105] reads 6.0. For `COc1nc2ccc(Br)cc2cc1C(c1ccccc1)C(O)(CCCN1CCOCC1)c1ccc2ccccc2c1` (single isomer, unassigned) [Compound 161], in experiment [1], the MIC worked out at 61.16 microgram/ml. On the same count and under the same terms, the result for `COc1nc2ccc(Br)cc2cc1C(c1ccccc1)C(O)(CCN1CCOCC1)c1ccc2cc(Br)ccc2c1` (single isomer, unassigned) [Compound 177] reads 67.65 microgram/ml; that for `COc1nc2ccc(Br)cc2cc1C(c1ccccc1)C(O)(CCn1ccnc1)c1cccc2ccccc12` (single isomer, unassigned) [Compound 187], 57.85 microgram/ml; that for `COc1nc2ccc(Br)cc2cc1C(c1ccccc1)C(O)(CCN1CCN(c2ncccn2)CC1)c1ccc2ccccc2c1` (single isomer, unassigned) [Compound 209], 67.47 microgram/ml. Compound `COc1nc2ccc(Br)cc2cc1C(c1ccccc1)C(O)(CCN(C)C)c1ccccc1` (centres unmarked) [Compound 1] came in with a pIC50 with M. Smegmatis ATCC607 of 7.3. In turn, `COc1nc2ccc(Br)cc2cc1C(c1ccccc1)C(O)(CCN(C)C)c1ccccc1` (centres unmarked) [Compound 2] gave a pIC50 with M. Smegmatis ATCC607 of 6.8.

In the experiment on M. Smegmatis ATCC607, `COc1nc2ccc(Br)cc2cc1C(c1ccccc1)C(O)(CCN(C)C)c1ccccc1` (centres unmarked) [Compound 3] came in with a pIC50 of 6.7. The same measure, in the same setting: to `COc1nc2ccc(Br)cc2cc1C(c1ccccc1)C(O)(CCN(C)C)c1ccccc1` (centres unmarked) [Compound 4] belongs 5.7; to `COc1nc2ccc(Br)cc2cc1C(c1ccccc1)C(O)(CCN(C)C)c1cc(F)ccc1F` (centres unmarked) [Compound 68], 6.4; to `COc1nc2ccc(Br)cc2cc1C(c1ccccc1)C(O)(CCN(C)C)c1cccc(F)c1` (centres unmarked) [Compound 108], 7.0.

Regarding `COc1nc2ccc(Br)cc2cc1C(c1ccccc1)C(O)(CCN1CCCCC1)c1ccc2ccccc2c1` (centres unmarked) [Compound 128], in experiment [1], the MIC amounted to 59.56 microgram/ml.
